Data taken from patent publication US4298525A, “Bis-indole-alkaloid” (Richter Gedeon Vegyeszeti Gyar RT, priority 1979, dated 1981).

Columns and labels:
[1] = administration of vincristine; cited from earlier work
[2] = in vivo
[3] = tested on: Ehrlich ascites carcinoma; experiment: effect on Ehrlich ascites carcinoma; format: in vivo, outbred Swiss mice; conditions: large single dose
Description: Transplantation was carried out into outbred Swiss mice at a level of 5×10^6 ascites tumor cells. Administration of RGH-4451 was started 24 hours after transplantation.

CC[C@]1(O)C[C@H]2CN(CCc3c([nH]c4ccccc34)[C@@](C(=O)OC)(c3cc4c(cc3OC)N(C=O)[C@H]3[C@@](O)(C(=O)OC)[C@H](OC(C)=O)[C@]5(CC)C=CCN6CC[C@]43[C@@H]65)C2)C1 [vincristine, N-desmethyl-N-formylvinblastine]
toxic side effects [1]: paralytic symptoms due to neurotoxicity | MTD/min eff. D [2]: 6 | effect of a large single dose on the duration of life [3]: did not increase the duration of life
